Laboratory results from patent EP3878447A1, “BETA ADRENERGIC RECEPTOR ANTAGONISTS” (InterAx Biotech AG, priority 2020, dated 2021).
Where a name gives a salt, the structure may show the parent alone. Read-outs that look alike come from different tables or passages of the source.

Assays:
[1] = molecular target: B1AR (Homo sapiens, UniProt P08588); test: Real-time cAMP inhibition assay in SNAP-B1AR-EPAC HEK cells; conditions: SNAP-B1AR-EPAC HEK cells stimulated with 50 nM Isoproterenol for 10 min, compound for additional 40 min, AUC of EPAC FRET ratio; mean ± SD
B1AR, sequence (P08588 whole entry): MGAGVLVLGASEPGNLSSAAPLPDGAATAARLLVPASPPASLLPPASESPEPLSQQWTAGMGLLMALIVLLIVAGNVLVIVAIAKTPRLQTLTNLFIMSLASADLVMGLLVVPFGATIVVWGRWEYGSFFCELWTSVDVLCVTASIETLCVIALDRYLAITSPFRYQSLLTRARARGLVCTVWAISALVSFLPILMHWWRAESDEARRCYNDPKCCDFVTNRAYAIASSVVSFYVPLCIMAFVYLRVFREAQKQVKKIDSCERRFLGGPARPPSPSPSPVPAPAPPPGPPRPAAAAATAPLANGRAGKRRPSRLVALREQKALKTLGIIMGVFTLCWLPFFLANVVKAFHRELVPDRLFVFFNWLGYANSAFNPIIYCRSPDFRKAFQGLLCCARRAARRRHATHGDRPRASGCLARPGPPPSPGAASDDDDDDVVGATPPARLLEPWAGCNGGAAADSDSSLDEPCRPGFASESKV

[2] = molecular target: T1, B2AR (Homo sapiens, UniProt P07550)
[3] = molecular target: T1, B2AR; test: Heterologous competition radioligand binding assay ([3H]-DHA) on SNAP-B2AR HEK membranes; conditions: equilibrium competition binding with 1 nM [3H]-DHA, 120 min RT, mean ± SD
Source text: Radioactivity was quantified using single photon counting on a TopCount NXT microplate scintillation and luminescence counter (Packard).

[4] = molecular target: T1, B2AR; test: biochemical
[5] = molecular target: T1, B2AR; test: Saturation binding of [3H]-DHA on SNAP-B2AR HEK membranes; set-up: membranes prepared from it; conditions: 5 µg SNAP-B2AR HEK membranes, specific binding; Mean ± SD, n=3; read-out: equilibrium dissociation constant (KD)

| Molecule | Ki [2] [nM] | pKi [3] | Ki [4] [nM] | further results |
| --- | --- | --- | --- | --- |
| 4-[2-(aminomethyl)-2,3-dihydro-1-benzofuran-7-yl]benzamide [Compound 7] | 1260 | 6.0 ± 0.1 |  | pIC50 [1]: 4.6 ± 0.5 |
| NCC1Cc2cccc(-c3ccc(O)c(F)c3)c2O1 (stereo not drawn) [Compound 8, 4-[2-(aminomethyl)-2,3-dihydro-1-benzofuran-7-yl]-2-fluorophenol] |  |  | 100 to 1000 |  |
| 5-[2-(aminomethyl)-2,3-dihydro-1-benzofuran-7-yl]pyridin-2-amine [Compound 5] | 2510 | 5.5 ± 0.1 |  |  |
| CCCc1ccccc1OC[C@@H](O)CNC(C)C [[^3H]-DHA, Dihydroalprenolol Hydrochloride, Levo-[Ring, Propyl-3H(N)]-] |  |  |  | Kd [5]: 0.3 ± 0.1 nM |
| NCC1Cc2cccc(-c3ccc(O)cc3)c2O1 (stereo not drawn) [Compound 4, 4-[2-(aminomethyl)-2,3-dihydro-1-benzofuran-7-yl]phenol] |  |  | 100 to 1000 |  |
| COc1ccc(-c2cc(F)cc3c2OC(CN)C3)cn1 (stereo not drawn) [Compound 6, 1-[5-fluoro-7-(6-methoxypyridin-3-yl)-2,3-dihydro-1-benzofuran-2-yl]methanamine] |  |  | 100 to 1000 |  |
